Test results as given in patent publication US10894797B2, “Fused tricyclic ring derivatives as SRC homology-2 phosphatase inhibitors” (Nikang Therapuetics, Inc., priority 2018, dated 2021).

These compounds were tested against SHP2 (Homo sapiens (Human), UniProt Q06124) (assay: SHP2 allosteric inhibition assay (DiFMUP substrate, bisphos-IRS1 peptide activation)). Details: 0.33 nM SHP2, 0.5 μM bisphos-IRS1 peptide, 100 uM DiFMUP, room temperature.
Type: biochemical
Method: At the basal state, SHP2 is auto-inhibited and access of substrates to the catalytic site is blocked by the […] interactions between the SH2 domains and the PTP domain. When bis-tyrosyl-phosphorylated peptides bind to SH2 domain of SHP2, the PTP domain becomes available for substrate recognition and reaction catalysis and SHP2 is allosterically activated. SHP2 catalytic activity can be measured using a fluorogenic artificial substrate DiFMUP.
The phosphatase reactions were carried out at room temperature in 384-well black polystyrene plates (Greiner Bio-One, Cat #784076) using assay buffers containing 60 mM HEPES, pH 7.2, 75 mM NaCl, 75 mM KCl, 1 mM EDTA, 0.05% P-20, and 5 mM DTT.
0.33 nM of SHP2 was co-incubated with of 0.5 μM of bisphos-IRS 1 peptide (sequence: H2N-LN(pY)IDLDLV(dPEG8)LST(pY)ASINFQK-amide) and various concentrations of compounds for 30-60 min at room temperature. Then the reaction was initiated by addition of the surrogate substrate DiFMUP (Invitrogen, Cat #D6567, 100 uM final).
The real-time conversion of DiFMUP to DiFMU (6,8-difluoro-7-hydroxyl-4-methyl-coumarin) was measured every 5 min for 30 min using a microplate reader (CLARIOstar, BMG Labtech) with excitation and emission wavelengths of 340 nm and 450 nm, respectively. Initial reaction rates were determined by linear fitting of the data and the inhibitor dose response curves were analyzed using normalized IC50 regression curve fitting with control-based normalization.

Row | Structure (SMILES) | IC50 | Shp2 IC50(nM)
1 | C[C@@H]1OCC2(CCN(c3ncc(Sc4ccnc5c4OC[C@@H]4C[C@](C)(O)CN54)nc3CO)CC2)[C@@H]1N (single isomer, unassigned) [Compound 18] | – | one of 21 and 22 is 13 and the other is 8
2 | C[C@@H]1OCC2(CCN(c3ncc(Sc4ccnc5c4OC[C@@H]4C[C@@](C)(O)CN54)nc3CO)CC2)[C@@H]1N (single isomer, unassigned) [Compound 19] | – | one of 21 and 22 is 13 and the other is 8
3 | C[C@@H]1OCC2(CCN(c3ncc(Sc4ccnc5c4OC[C@@H]4C[C@H](F)CN54)nc3CO)CC2)[C@@H]1N [Compound 3, (3-((3S,4S)-4-amino-3-methyl-2-oxa-8-azaspiro[4.5]decan-8-yl)-6-(((6aS,8S)-8-fluoro-6a,7,8,9-tetrahydro-6H-pyrido[3,2-b]pyrrolo[1,2-d][1,4]oxazin-4-yl)thio)pyrazin-2-yl)methanol] | 13 nM | –
4 | CO[C@@H]1C[C@@H]2COc3c(Sc4cnc(N5CCC6(CC5)CO[C@@H](C)[C@H]6N)c(CO)n4)ccnc3N2C1 [Compound 9, (3-((3S,4S)-4-amino-3-methyl-2-oxa-8-azaspiro[4.5]decan-8-yl)-6-(((6aR,8R)-8-methoxy-6a,7,8,9-tetrahydro-6H-pyrido[3,2-b]pyrrolo[1,2-d][1,4]oxazin-4-yl)thio)pyrazin-2-yl)methanol] | 8 nM | –
5 | CO[C@H]1C[C@@H]2COc3c(Sc4cnc(N5CCC6(CC5)CO[C@@H](C)[C@H]6N)c(CO)n4)ccnc3N2C1 [Compound 10, (3-((3S,4S)-4-amino-3-methyl-2-oxa-8-azaspiro[4.5]decan-8-yl)-6-(((6aR,8S)-8-methoxy-6a,7,8,9-tetrahydro-6H-pyrido[3,2-b]pyrrolo[1,2-d][1,4]oxazin-4-yl)thio)pyrazin-2-yl)methanol] | 10 nM | –
6 | C[C@@H]1OCC2(CCN(c3ncc(Sc4ccnc5c4OC[C@@H]4C[C@H](O[C@H]6CCOC6)CN54)nc3CO)CC2)[C@@H]1N [Compound 11, (3-((3S,4S)-4-amino-3-methyl-2-oxa-8-azaspiro[4.5]decan-8-yl)-6-(((6aS,8S)-8-(((S)-tetrahydrofuran-3-yl)oxy)-6a,7,8,9-tetrahydro-6H-pyrido[3,2-b]pyrrolo[1,2-d][1,4]oxazin-4-yl)thio)pyrazin-2-yl)methanol] | 14 nM | –
7 | C[C@@H]1OCC2(CCN(c3ncc(Sc4ccnc5c4OC[C@@H]4C[C@H](O[C@@H]6CCOC6)CN54)nc3CO)CC2)[C@@H]1N [Compound 12, (3-((3S,4S)-4-amino-3-methyl-2-oxa-8-azaspiro[4.5]decan-8-yl)-6-(((6aS,8S)-8-(((R)-tetrahydrofuran-3-yl)oxy)-6a,7,8,9-tetrahydro-6H-pyrido[3,2-b]pyrrolo[1,2-d][1,4]oxazin-4-yl)thio)pyrazin-2-yl)methanol] | 12 nM | –
8 | C[C@@H]1OCC2(CCN(c3ncc(Sc4ccnc5c4OC[C@@H]4C[C@H](OC6COC6)CN54)nc3CO)CC2)[C@@H]1N [Compound 13, (3-((3S,4S)-4-amino-3-methyl-2-oxa-8-azaspiro[4.5]decan-8-yl)-6-(((6aS,8S)-8-(oxetan-3-yloxy)-6a,7,8,9-tetrahydro-6H-pyrido[3,2-b]pyrrolo[1,2-d][1,4]oxazin-4-yl)thio)pyrazin-2-yl)methanol] | 8 nM | –
9 | COCCO[C@H]1C[C@H]2COc3c(Sc4cnc(N5CCC6(CC5)CO[C@@H](C)[C@H]6N)c(CO)n4)ccnc3N2C1 [Compound 15, (3-((3S,4S)-4-amino-3-methyl-2-oxa-8-azaspiro[4.5]decan-8-yl)-6-(((6aS,8S)-8-(2-methoxyethoxy)-6a,7,8,9-tetrahydro-6H-pyrido[3,2-b]pyrrolo[1,2-d][1,4]oxazin-4-yl)thio)pyrazin-2-yl)methanol] | 10 nM | –
10 | C[C@@H]1OCC2(CCN(c3ncc(Sc4ccnc5c4OC[C@@H]4C[C@H](C#N)CN54)nc3CO)CC2)[C@@H]1N [Compound 20, (6aS,8S)-4-((5-((3S,4S)-4-amino-3-methyl-2-oxa-8-azaspiro[4.5]decan-8-yl)-6-(hydroxymethyl)pyrazin-2-yl)thio)-6a,7,8,9-tetrahydro-6H-pyrido[3,2-b]pyrrolo[1,2-d][1,4]oxazine-8-carbonitrile] | 11 nM | –
11 | C[C@@H]1OCC2(CCN(c3ncc(Sc4ccnc5c4OC[C@@H]4C[C@H](S(C)(=O)=O)CN54)nc3CO)CC2)[C@@H]1N [Compound 21, (3-((3S,4S)-4-amino-3-methyl-2-oxa-8-azaspiro[4.5]decan-8-yl)-6-(((6aS,8S)-8-(methylsulfonyl)-6a,7,8,9-tetrahydro-6H-pyrido[3,2-b]pyrrolo[1,2-d][1,4]oxazin-4-yl)thio)pyrazin-2-yl)methanol] | 13 nM | –

The remaining compounds from weak to strong by IC50, led by results:

Row | IC50 | Structure (SMILES) | Shp2 IC50(nM)
12 | 8 nM | CO[C@H]1C[C@H]2COc3c(Sc4cnc(N5CCC6(CC5)CO[C@@H](C)[C@H]6N)c(CO)n4)ccnc3N2C1 [Compound 5, (3-((3S,4S)-4-amino-3-methyl-2-oxa-8-azaspiro[4.5]decan-8-yl)-6-(((6aS,8S)-8-methoxy-6a,7,8,9-tetrahydro-6H-pyrido[3,2-b]pyrrolo[1,2-d][1,4]oxazin-4-yl)thio)pyrazin-2-yl)methanol] | –
13 | 8 nM | C[C@@H]1OCC2(CCN(c3ncc(Sc4ccnc5c4OC[C@@H]4C[C@@H](O)CN54)nc3CO)CC2)[C@@H]1N [Compound 8, (6aS,8R)-4-((5-((3 S,4S)-4-amino-3-methyl-2-oxa-8-azaspiro[4.5]decan-8-yl)-6-(hydroxymethyl)pyrazin-2-yl)thio)-6a,7,8,9-tetrahydro-6H-pyrido[3,2-b]pyrrolo[1,2-d][1,4]oxazin-8-ol] | –
14 | 6 nM | CO[C@@H]1C[C@H]2COc3c(Sc4cnc(N5CCC6(CC5)CO[C@@H](C)[C@H]6N)c(CO)n4)ccnc3N2C1 [Compound 6, (3-((3S,4S)-4-amino-3-methyl-2-oxa-8-azaspiro[4.5]decan-8-yl)-6-(((6aS,8R)-8-methoxy-6a,7,8,9-tetrahydro-6H-pyrido[3,2-b]pyrrolo[1,2-d][1,4]oxazin-4-yl)thio)pyrazin-2-yl)methanol] | –
15 | 6 nM | C[C@@H]1OCC2(CCN(c3ncc(Sc4ccnc5c4OC[C@@H]4C[C@H](O)CN54)nc3CO)CC2)[C@@H]1N [Compound 7, (6aS,8S)-4-((5-((3S,4S)-4-amino-3-methyl-2-oxa-8-azaspiro[4.5]decan-8-yl)-6-(hydroxymethyl)pyrazin-2-yl)thio)-6a,7,8,9-tetrahydro-6H-pyrido[3,2-b]pyrrolo[1,2-d][1,4]oxazin-8-ol] | –
16 | 5 nM | C[C@@H]1OCC2(CCN(c3ncc(Sc4ccnc5c4OC[C@@H]4C[C@@H](F)CN54)nc3CO)CC2)[C@@H]1N [Compound 4, (3-((3S,4S)-4-amino-3-methyl-2-oxa-8-azaspiro[4.5]decan-8-yl)-6-(((6aS,8R)-8-fluoro-6a,7,8,9-tetrahydro-6H-pyrido[3,2-b]pyrrolo[1,2-d][1,4]oxazin-4-yl)thio)pyrazin-2-yl)methanol] | –
17 | 5 nM | COCO[C@H]1C[C@H]2COc3c(Sc4cnc(N5CCC6(CC5)CO[C@@H](C)[C@H]6N)c(CO)n4)ccnc3N2C1 [Compound 14, (3-((3S,4S)-4-amino-3-methyl-2-oxa-8-azaspiro[4.5]decan-8-yl)-6-(((6aS,8S)-8-(methoxymethoxy)-6a,7,8,9-tetrahydro-6H-pyrido[3,2-b]pyrrolo[1,2-d][1,4]oxazin-4-yl)thio)pyrazin-2-yl)methanol] | –
18 | 4 nM | C[C@@H]1OCC2(CCN(c3ncc(Sc4ccnc5c4OC[C@H]4CCCN54)nc3CO)CC2)[C@@H]1N [Compound 2, (3-((3S,4S)-4-amino-3-methyl-2-oxa-8-azaspiro[4.5]decan-8-yl)-6-(((R)-6a,7,8,9-tetrahydro-6H-pyrido[3,2-b]pyrrolo[1,2-d][1,4]oxazin-4-yl)thio)pyrazin-2-yl)methanol] | –
19 | 3 nM | C[C@@H]1OCC2(CCN(c3ncc(Sc4ccnc5c4OC[C@@H]4CCCN54)nc3CO)CC2)[C@@H]1N [Compound 1, (3-((3S,4S)-4-amino-3-methyl-2-oxa-8-azaspiro[4.5]decan-8-yl)-6-(((S)-6a,7,8,9-tetrahydro-6H-pyrido[3,2-b]pyrrolo[1,2-d][1,4]oxazin-4-yl)thio)pyrazin-2-yl)methanol] | –
20 | 3 nM | C[C@@H]1OCC2(CCN(c3ncc(Sc4ccnc5c4OC[C@@H]4C[C@H](OCC6CC6)CN54)nc3CO)CC2)[C@@H]1N [Compound 16, (3-((3S,4S)-4-amino-3-methyl-2-oxa-8-azaspiro[4.5]decan-8-yl)-6-(((6aS,8S)-8-(cyclopropylmethoxy)-6a,7,8,9-tetrahydro-6H-pyrido[3,2-b]pyrrolo[1,2-d][1,4]oxazin-4-yl)thio)pyrazin-2-yl)methanol] | –
21 | 2 nM | C[C@@H]1OCC2(CCN(c3ncc(Sc4ccnc5c4OC[C@@H]4CC6(CC6)CN54)nc3CO)CC2)[C@@H]1N [Compound 17, (3-((3S,4S)-4-amino-3-methyl-2-oxa-8-azaspiro[4.5]decan-8-yl)-6-(((S)-6a′,7′-dihydro-6′H,9′H-spiro[cyclopropane-1,8′-pyrido[3,2-b]pyrrolo[1,2-d][1,4]oxazin]-4′-yl)thio)pyrazin-2-yl)methanol] | –
